This note sets out measurements from US4816586A, “Delta opioid receptor antagonists” (Regents of the University of Minnesota, priority 1987, dated 1989).

Holding throughout (type): cell-based
In assay [1] the target is T1, delta opioid receptor (Mus musculus, UniProt P32300). The assay is described as follows: Comparison as delta antagonist with ICI 174864 and M8008.
Assay [2] deals with T1, delta opioid receptor. The assay is described as follows: Antagonism of DADLE (delta agonist) in the mouse vas deferens (MVD) preparation. More on the design: Both vasa deferentia were dissected out of mice; from tissue; host or cells: mouse vas deferens; key to Ke, DADLE: No agonist antagonism observed. Conditions: for Kb: compound 100 or 200 nM, 15 min incubation, read-out: Ke, DADLE; for relative delta antagonist potency: compared within the series. The procedure: (§1) The organ bath was maintained at 37° C.
The results of these bioassays are summarized on Table IV, below.

The target of assay [3] is mu opioid receptor (Cavia porcellus, UniProt A0ACM8Q262). Briefly: Antagonism of morphine (mu agonist) in the guinea pig ileum (GPI) preparation. More on the design: key to Ke, M: No agonist antagonism observed. As to conditions: for Kb: compound 100 or 200 nM, 15 min incubation, read-out: Ke. The procedure: (§2) 1. Guinea Pig Ileal Longitudinal Muscle (GPI). Ilea from guinea pigs were taken approximately 10 cm from the ileocaecal junction, and a strip of longitudinal muscle with the myenteric plexus attached was prepared by method of Rang et al., Brit. J. Pharmacol., 22, 356 (1964), the disclosure of which is incorporated by reference herein. A 1 cm portion of this strip was then mounted between two platinum electrodes placed in a 10 ml organ bath and connected to an isometric transducer; contractions were recorded on a polygraph. Contractions of the ileal strip were initiated by supramaximal rectangular pulses in all preparations (80 V of 0.5 ms duration at a frequency of 0.1 Hz). Krebs bicarbonate solution containing 1.25 μM chlorpheniramine maleate was the bathing solution and was continuously bubbled with 95% O2 and 5% CO2. The organ bath was maintained at 36°-37° C. The longitudinal muscle strip was allowed to equilibrate with continuous stimulation for a minimum of 90 min.

Assay [4] addresses T2, kappa opioid receptor (Cavia porcellus, UniProt P41144).
T2 construct: a strip of longitudinal muscle with the myenteric plexus attached was prepared; from tissue; host or cells: guinea pig ileum longitudinal muscle with myenteric plexus
The assay is described as follows: Antagonism of ethylketazocine (kappa agonist) in the guinea pig ileum (GPI) preparation. Set-up: key to Ke, EK: No agonist antagonism observed. Conditions: for Kb: compound 100 or 200 nM, 15 min incubation, read-out: Ke, EK. As to the method:
as §2

Assay [5] concerns mouse vas deferens (MVD) and guinea pig ileum (GPI) preparations. The assay is described as follows: Agonist activity in the MVD and GPI preparations. The procedure: as §2, §1
[6] abbreviates: compound 7 tested at 5 nM or less.

T2 sequence (P41144 whole entry): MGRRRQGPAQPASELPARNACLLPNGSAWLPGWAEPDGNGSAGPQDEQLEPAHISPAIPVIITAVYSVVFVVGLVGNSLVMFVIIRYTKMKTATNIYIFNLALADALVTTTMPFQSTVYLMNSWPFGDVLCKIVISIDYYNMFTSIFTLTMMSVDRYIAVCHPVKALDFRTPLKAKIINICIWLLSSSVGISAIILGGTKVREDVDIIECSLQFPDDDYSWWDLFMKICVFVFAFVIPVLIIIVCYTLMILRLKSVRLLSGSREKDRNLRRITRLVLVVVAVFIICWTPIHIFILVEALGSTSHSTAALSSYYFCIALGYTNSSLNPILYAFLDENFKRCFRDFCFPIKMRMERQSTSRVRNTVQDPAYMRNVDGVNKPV
T1 sequence (P32300 whole entry): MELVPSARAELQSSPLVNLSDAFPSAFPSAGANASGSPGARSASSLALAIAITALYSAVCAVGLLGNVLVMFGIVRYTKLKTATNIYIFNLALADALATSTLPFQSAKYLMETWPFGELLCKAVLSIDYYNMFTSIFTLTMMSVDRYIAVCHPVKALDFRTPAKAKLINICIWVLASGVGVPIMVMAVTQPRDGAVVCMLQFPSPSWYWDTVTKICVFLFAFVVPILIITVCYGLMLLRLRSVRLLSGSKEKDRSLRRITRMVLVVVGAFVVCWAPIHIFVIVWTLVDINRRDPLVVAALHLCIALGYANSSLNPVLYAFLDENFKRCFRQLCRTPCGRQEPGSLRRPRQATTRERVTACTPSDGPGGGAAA
mu opioid receptor, sequence (A0ACM8Q262 1-400): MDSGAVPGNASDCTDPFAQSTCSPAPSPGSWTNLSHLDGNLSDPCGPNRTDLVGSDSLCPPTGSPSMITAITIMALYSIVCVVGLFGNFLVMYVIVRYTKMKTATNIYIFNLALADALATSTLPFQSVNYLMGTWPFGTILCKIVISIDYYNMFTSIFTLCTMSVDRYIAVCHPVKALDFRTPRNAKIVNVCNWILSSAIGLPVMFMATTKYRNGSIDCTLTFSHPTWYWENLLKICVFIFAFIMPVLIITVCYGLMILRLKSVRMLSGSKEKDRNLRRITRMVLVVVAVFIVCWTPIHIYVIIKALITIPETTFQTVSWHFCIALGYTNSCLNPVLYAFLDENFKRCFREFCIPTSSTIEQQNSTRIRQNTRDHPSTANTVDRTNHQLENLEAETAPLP

Consider `Oc1ccc2c3c1O[C@H]1c4[nH]c5ccccc5c4C[C@@]4(O)[C@@H](C2)N(CC2CC2)CC[C@]314` [Compound 1, 17-Cyclopropylmethyl-6,7-dehydro-4,5α-epoxy-3,14-dihydroxy-6,7,2',3'-indolomorphinan], for which the “potency compared with ICI 174864” value in assay [1] is given as “considerably more potent than the peptide delta antagonist, ICI 174864”. In assay [1] (in one assay), the “potency relative to the peptide delta antagonist ICI 174864” value is reported as “at least 30 times”. In addition, in assay [2], the “antagonism of the effect of the delta agonist DADLE / delta antagonist activity” value is listed as “highly active delta antagonist” and the “relative delta antagonist potency” value is “an order of magnitude more potent than its substituted congeners”. For the same compound, the Kb in assay [2] (agonist DADLE, MVD) is 0.22 nM.
Take `Cn1c2c(c3ccccc31)C[C@@]1(O)[C@H]3Cc4ccc(O)c5c4[C@@]1(CCN3CC1CC1)[C@H]2O5` [Compound 2]: the Kb in assay [3] was found to be 12.5 nM; in assay [2] (agonist DADLE, MVD) it was 1.5 nM; in assay [4], 22.2 nM. In addition, the “relative delta antagonist potency” value in assay [2] is listed as “reduction of antagonist potency”.
`Oc1ccc2c3c1O[C@H]1c4[nH]c5ccc(F)cc5c4C[C@@]4(O)[C@@H](C2)N(CC2CC2)CC[C@]314` [Compound 3]: the Kb in assay [3] was determined as 61.7 nM; in assay [2] (agonist DADLE, MVD) it was 2 nM; in assay [4], 46.2 nM.
Take `COc1ccc2[nH]c3c(c2c1)C[C@@]1(O)[C@H]2Cc4ccc(O)c5c4[C@@]1(CCN2CC1CC1)[C@H]3O5` [Compound 4]: the Kb in assay [2] (agonist DADLE, MVD) amounted to 5.7 nM; in assay [4], 12.6 nM.
With `Cc1ccc2[nH]c3c(c2c1)C[C@@]1(O)[C@H]2Cc4ccc(O)c5c4[C@@]1(CCN2CC1CC1)[C@H]3O5` [Compound 5], the Kb in assay [3] is more than 160 nM; in assay [2] (agonist DADLE, MVD) it was 4.2 nM; in assay [4], more than 250 nM.
In the case of `O=[N+]([O-])c1ccc2[nH]c3c(c2c1)C[C@@]1(O)[C@H]2Cc4ccc(O)c5c4[C@@]1(CCN2CC1CC1)[C@H]3O5` [Compound 6], the Kb in assay [3] is 92 nM; in assay [2] (agonist DADLE, MVD), 168 nM; in assay [4], not below 200 nM.
In the case of `CN1CC[C@]23c4c5ccc(O)c4O[C@H]2c2[nH]c4ccccc4c2C[C@@]3(O)[C@H]1C5` [Compound 7], in assay [5], the “agonist activity” value was “partial agonist activity”. Moreover, the “relative agonist potency” value in assay [5] (compared with the N-cyclopropyl analogues) was “substantially more potent as an agonist than the N-cyclopropyl analogues”. The “Ke, M” value in assay [3] (setting [6]) is “e”. Also, in assay [2] (agonist DADLE, MVD, compound 7 tested at 5 nM or less), the “Ke, DADLE” value was “e”. Also, the “Ke, EK” value in assay [4] (setting [6]) is “e”.
Take `Oc1ccc2c3c1O[C@H]1c4oc5ccccc5c4C[C@@]4(O)[C@@H](C2)N(CC2CC2)CC[C@]314` [Compound 8, 6,7,2',3'-Benzofurano-17-cyclopropylmethyl-6,7-dehydro-3,14-dihydroxy-4,5α-epoxymorphinan]: the Kb in assay [3] worked out at 30.8 nM; in assay [2] (agonist DADLE, MVD), 1.8 nM; in assay [4] it was 50.8 nM. For the same compound, the “antagonism of the effect of the delta agonist DADLE / delta antagonist activity” value in assay [2] is “retains substantial delta antagonist activity”. Also, in assay [2] (compared with compound 1), the “relative delta selectivity” value is recorded as “less selective than 1”. For the same compound, the “relative delta antagonist potency” value in assay [2] is “less potent”.
With `Oc1ccc2[nH]c3c(c2c1)C[C@@]1(O)[C@H]2Cc4ccc(O)c5c4[C@@]1(CCN2CC1CC1)[C@H]3O5` [Compound 9], in assay [4], the Kb was found to be 68.5 nM.
For the compound `Oc1ccc2c3c1O[C@H]1c4[nH]c5cccc(F)c5c4C[C@@]4(O)[C@@H](C2)N(CC2CC2)CC[C@]314` [Compound 10], the Kb in assay [3] is more than 125 nM; in assay [2] (agonist DADLE, MVD), 5.5 nM; in assay [4] it was more than 170 nM.
In the same order, the values of `Oc1ccc2c3c1O[C@H]1c4[nH]c5c(F)cccc5c4C[C@@]4(O)[C@@H](C2)N(CC2CC2)CC[C@]314` [Compound 11] are 5.3 nM, 0.35 nM and more than 330 nM.
In the same order, the values of `Cc1cccc2c3c([nH]c12)[C@@H]1Oc2c(O)ccc4c2[C@@]12CCN(CC1CC1)[C@H](C4)[C@]2(O)C3` [Compound 13] are 19.1 nM, 1.5 nM and more than 330 nM.
For `COc1cccc2c3c([nH]c12)[C@@H]1Oc2c(O)ccc4c2[C@@]12CCN(CC1CC1)[C@H](C4)[C@]2(O)C3` [Compound 14], the Kb in assay [3] worked out at 35 nM; in assay [2] (agonist DADLE, MVD), 6.6 nM.
Regarding `Oc1ccc2c3c1O[C@H]1c4nc5ccccc5nc4C[C@@]4(O)[C@@H](C2)N(CC2CC2)CC[C@]314` [Compound 16, 6,7,2',3'-benzopyrazino-17-cyclopropylmethyl-6,7-dehydro-3,14-dihydroxy-4,5α-epoxymorphinan], the Kb in assay [2] (agonist DADLE, MVD) is 1.4 nM; in assay [4], 13.4 nM. The “relative delta antagonist potency” value in assay [2] is on record as “A similar relationship was observed”.
`Oc1ccc2c3c1O[C@H]1c4nc5ccccc5cc4C[C@@]4(O)[C@@H](C2)N(CC2CC2)CC[C@]314` [Compound 17, 17-cyclopropylmethyl-6,7-dehydro-4,5α-epoxy-3,14-dihydroxy-6,7,2',3'-quinolinomorphinan]: the Kb in assay [2] (agonist DADLE, MVD) is 2.7 nM; in assay [4], 16.3 nM. In addition, the “relative delta antagonist potency” value in assay [2] is recorded as “A similar relationship was observed”.
